Experimental findings from patent US9447069B2, “ROR modulators and their uses” (INNOV17 LLC, priority 2012, dated 2016) are described below.

For data set [1], the target named is T1, RORα LBD (Homo sapiens, UniProt P35398).
T1 construct: purified GST-tagged (i) RORγ LBD or (ii) RORα LBD; purchased Life Technologies
T1 sequence (P35398 272-510 limits assumed): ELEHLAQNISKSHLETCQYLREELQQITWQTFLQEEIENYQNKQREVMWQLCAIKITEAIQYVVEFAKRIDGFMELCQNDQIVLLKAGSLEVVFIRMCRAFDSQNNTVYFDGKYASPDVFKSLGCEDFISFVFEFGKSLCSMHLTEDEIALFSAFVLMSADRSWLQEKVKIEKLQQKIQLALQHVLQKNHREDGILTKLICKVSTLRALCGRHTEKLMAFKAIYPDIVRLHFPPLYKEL
The data set is described as follows: TR-FRET NCoR1-D2 co-repressor recruitment to RORα LBD. It is filed as biochemical. The source says:
(§1) The Time-Resolved Fluorescence Resonance Energy Transfer (TR-FRET) assay kit (Life Technologies) was used to measure compound efficacy to disrupt or enhance ligand-mediated interaction of the co-activator and co-repressor peptides with the purified GST-tagged (i) RORγ LBD or (ii) RORα LBD. The RORγ LBD and RORα LBD each have a basal level of interaction with the co-activator D22 or co-repressor NCoR1-D2 in the absence of ligand, thus it is possible to identify compounds that inhibit or induce RORγ and/or RORα co-activator/co-repressor interactions, thus determining RORα, RORγ, or RORα/RORγ compound selectivity. The assay was performed as per manufacturer's instructions and TR-FRET was assessed 2 and 20 hours post-assay initiation. Compounds were identified to (i) have no impact on either co-activator displacement or […] from the assessed LBD (ii) promote co-activator displacement from the assessed LBD (iii) promote co-repressor recruitment to the assessed LBD or (iv) concurrently promote co-activator displacement from the assessed LBD and co-repressor recruitment to the assessed LBD.
A general note: TR-FRET usually uses a lanthanide donor and a delayed reading to cut background.

A further data set concerns TH17 cells. Description: TH17 cellular proliferation (Prestoblue). It is filed as cell-based. The note with it: Homo sapiens, 120 h; 3 μM compound, after 5 day TH17 differentiation, relative to DMSO treated TH17 cells; read-out: % change in TH17 cell number. As for the experimental part:
(§2) Peripheral blood mononuclear cells (PBMCs) were sourced from freshly prepared leukocyte enriched plasma (buffy coat) from healthy volunteers from which PBMCs were isolated by density gradient centrifugation using Ficoll-Paque™ PLUS (GE Healthcare). Naïve CD4+ T cells were isolated using the Naïve CD4+ T cell Isolation Kit II (Miltenyi Biotec) as per manufacturer's instructions. CD4+ T cells were plated at 5×10^4 cells/well in 96 well plates pre-coated with immobilized human (h)-αCD3 antibody (eBioscience) then differentiated to TH17 cells using h-αCD28, h-αIFN-γ, h-αIL-4, h-IL-6, h-IL-23, h-IL-1β, h-TGF-β1 (eBioscience) and maintained in a cell culture incubator at 37° C. with 5% CO2 in TexMACS Medium (Miltenyi Biotec) supplemented with 1% Penicillin/Streptomycin (Lonza) over 5 days.
Cellular proliferation was assessed in the presence or absence of 3 μM compound using Prestoblue® Cell Viability Reagent (Life Technologies) as per manufacturer's instructions using absorbance as the output measured by a microplate reader (Perkin Elmer) after 30 minutes of incubation. A standard curve developed by plotting varying cell numbers versus absorbance was used to assess differences in cellular proliferation between compound treated or untreated cells after the 5 day TH17 differentiation period.

Data set [2] addresses T2, RORγ LBD (Homo sapiens, UniProt P51449).
T2 sequence (P51449 269-508 limits assumed): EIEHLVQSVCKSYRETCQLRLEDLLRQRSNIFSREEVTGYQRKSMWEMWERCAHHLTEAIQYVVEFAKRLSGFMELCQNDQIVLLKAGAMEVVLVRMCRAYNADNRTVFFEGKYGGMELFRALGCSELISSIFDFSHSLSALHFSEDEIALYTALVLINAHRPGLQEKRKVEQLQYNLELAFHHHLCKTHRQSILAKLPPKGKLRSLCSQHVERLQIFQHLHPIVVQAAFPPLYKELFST
The data set is described as follows: TR-FRET D22 co-activator displacement from RORγ LBD. It is filed as biochemical. The arrangement: purified GST-tagged (i) RORγ LBD or (ii) RORα LBD; purchased Life Technologies.
Description: as §1

The target in data set [3] is T2, RORγ LBD. The data set is described as follows: TR-FRET NCoR1-D2 co-repressor recruitment to RORγ LBD. It is filed as biochemical. Also noted: purified GST-tagged (i) RORγ LBD or (ii) RORα LBD; purchased Life Technologies.
Description: as §1

Data set [4] addresses T1, RORα LBD. The data set is described as follows: TR-FRET D22 co-activator displacement from RORα LBD. It is filed as biochemical.
Description: as §1

The subject of a further data set is IL-21. Description: TH17 cytokine inhibition measured by ELISA (IL-21). It is filed as cell-based. As to conditions: 120 h; human TH17 cells, 5 days differentiation, ELISA of supernatants, 0.1% DMSO. As for the experimental part: as §2
(§3) Human CD4+ T cells were differentiated to TH17 cells as described in the presence or absence of various concentrations of compounds in a final concentration of 0.1% DMSO in TexMACS medium. Supernatants were collected and stored at −20° C. until they were to be assayed for IL-17A, IL-17F, IL-17AF, IL-21 and/or IL-22 levels as determined by Ready-Set-Go ELISA kits (eBioscience) as per manufacturer's instructions. Endpoint absorbance was read at 450 nm and 570 nm according to manufacturer's instructions (eBioscience) using a microplate reader (Perkin Elmer). The percentage of cytokine inhibition was calculated with reference to DMSO treated cells and the IC50s were determined by GraphPad Prism software and presented in the table below.

The subject of another data set is IL-22. Description: TH17 cytokine inhibition measured by ELISA (IL-22). It is filed as cell-based. As to conditions: 120 h; human TH17 cells, 5 days differentiation, ELISA of supernatants, 0.1% DMSO. As for the experimental part:
as §2, §3

A short description of data set [5]: TH17 cell viability (Prestoblue). It is filed as cell-based. The note with it: human; 1 μM compound, after 5 days, percentage of DMSO treated cells. The protocol:
as §2
Cells were assayed for viability in the presence or absence of 1 μM compound using Prestoblue® Cell Viability Reagent (Life Technologies) as per manufacturer's instructions after 30 minutes incubation of TH17 cells with reagent. Absorbance was measured at 570 nm and 600 nm using a microplate reader (Perkin Elmer) and data were analyzed as per manufacturer's instructions. Cell viability was determined after 5 days and expressed as a percentage of DMSO treated cells.

Another data set deals with IL-17F. The data set is described as follows: TH17 cytokine inhibition measured by ELISA (IL-17F). It is filed as cell-based. The note with it: 120 h; human TH17 cells, 5 days differentiation, ELISA of supernatants, 0.1% DMSO. As for the experimental part: as §2, §3
In general terms: In an ELISA, binding on a coated surface is turned into a signal by an enzyme label.

In another data set the test system is IL-17A. Description: TH17 cytokine inhibition measured by ELISA (IL-17A). The note with it: 120 h; human TH17 cells, 5 days differentiation, ELISA of supernatants, 0.1% DMSO. It is filed as cell-based. As for the experimental part: as §2, §3
The test system of the next data set is IL-17AF. Description: TH17 cytokine inhibition measured by ELISA (IL-17AF). It is filed as cell-based. As to conditions: 120 h; human TH17 cells, 5 days differentiation, ELISA of supernatants, 0.1% DMSO. The protocol:
as §2, §3

Where [6] appears, read: TR-FRET assessed 2 hr post-assay initiation, read-out: RORα EC50 NCoR1-D2 co-repressor recruitment, 2 hr.
The mark [7] stands for this setting: TR-FRET assessed 20 hr post-assay initiation, read-out: RORα EC50 NCoR1-D2 co-repressor recruitment, 20 hr.
Setting [8] is: TR-FRET assessed 2 hr post-assay initiation, read-out: RORγ EC50 D22 co-activator displacement, 2 hr.
Setting [9] is: TR-FRET assessed 20 hr post-assay initiation, read-out: RORγ EC50 D22 co-activator displacement, 20 hr.
The mark [10] stands for this setting: TR-FRET assessed 2 hr post-assay initiation, read-out: RORγ EC50 NCoR1-D2 co-repressor recruitment, 2 hr.
[11] abbreviates: TR-FRET assessed 20 hr post-assay initiation, read-out: RORγ EC50 NCoR1-D2 co-repressor recruitment, 20 hr.
The mark [12] stands for this setting: TR-FRET assessed 2 hr post-assay initiation, read-out: RORα EC50 D22 co-activator displacement, 2 hr.
Where [13] appears, read: TR-FRET assessed 20 hr post-assay initiation, read-out: RORα EC50 D22 co-activator displacement, 20 hr.

Molecules are shown by their SMILES.

`OC(c1ccc(CN2CCc3cc(-c4cn[nH]c4)ccc32)cc1)(C(F)(F)F)C(F)(F)F` [Example 8, 2-(4-((5-(1H-pyrazol-4-yl)indolin-1-yl)methyl)phenyl)-1,1,1,3,3,3-hexafluoropropan-2-ol] displayed a melting point of 191 to 195 °C. The EC50 on RORα LBD [1] (setting [6]) was less than 30 µM. For the same compound, the 50% effective concentration (EC50) on RORα LBD [1] (setting [7]) was more than 30 µM. The inhibition at 3 µM in the data set with TH17 cells was more than 50%. At RORγ LBD [2] (setting [8]), the 50% effective concentration (EC50) was less than 30 µM. For the same compound, the EC50 on RORγ LBD [2] (setting [9]) is less than 30 µM. The concentration for a half-maximal effect (EC50) on RORγ LBD [3] (setting [10]) is less than 30 µM. On RORγ LBD [3] (setting [11]), the EC50 is more than 30 µM. Also, on RORα LBD [4] (setting [12]), the 50% effective concentration (EC50) is more than 30 µM. In addition, the concentration for a half-maximal effect (EC50) on RORα LBD [4] (setting [13]) was less than 30 µM. Besides, the IC50 in the data set on IL-21 was less than 10 µM. The same compound came in with an IC50 with IL-22 of less than 10 µM. In [5], the viability at 5 days, 1 µM is more than 80%. The concentration for half-maximal inhibition (IC50) with IL-17F is less than 10 µM. Also, in the data set on IL-17A, the 50% inhibitory concentration (IC50) is less than 10 µM. This compound had an IC50 in the data set with IL-17AF of less than 10 µM.

For the compound `Cc1nnc(-c2ccc3c(c2)CCN3Cc2ccc(C(O)(C(F)(F)F)C(F)(F)F)cc2)o1` [Example 9, 1,1,1,3,3,3-hexafluoro-2-(4-((5-(5-methyl-1,3,4-oxadiazol-2-yl)indolin-1-yl)methyl)phenyl)propan-2-ol], the concentration for a half-maximal effect (EC50) is more than 30 µM at RORα LBD [1] (setting [6]); less than 30 µM on RORα LBD [1] (setting [7]); more than 30 µM at RORγ LBD [2] (setting [8]); more than 30 µM on RORγ LBD [2] (setting [9]); less than 30 µM at RORγ LBD [3] (setting [10]); more than 30 µM at RORγ LBD [3] (setting [11]). Moreover, the concentration giving a half-maximal response (EC50) on RORα LBD [4] (setting [12]) was more than 30 µM; on RORα LBD [4] (setting [13]) it was less than 30 µM. In addition, in the data set on TH17 cells, the inhibition at 3 µM was more than 50%. For the same compound, the half-inhibitory concentration (IC50) in the data set with IL-21 is less than 10 µM; in the data set with IL-22 it was less than 10 µM; in the data set with IL-17F, less than 10 µM; in the data set with IL-17A, less than 10 µM; with IL-17AF, more than 10 µM. The compound also registered a viability at 5 days, 1 µM in [5] of more than 80%.

For `Cc1cc(-c2ccc3c(c2)CCN3Cc2ccc(C(O)(C(F)(F)F)C(F)(F)F)cc2)[nH]n1` [Example 7, 1,1,1,3,3,3-hexafluoro-2-(4-((5-(3-methyl-1H-pyrazol-5-yl)indolin-1-yl)methyl)phenyl)propan-2-ol], the EC50 is more than 30 µM on RORα LBD [1] (setting [6]); less than 30 µM on RORα LBD [1] (setting [7]); less than 30 µM on RORγ LBD [2] (setting [8]); less than 30 µM at RORγ LBD [2] (setting [9]); less than 30 µM on RORγ LBD [3] (setting [10]); less than 30 µM at RORγ LBD [3] (setting [11]). Further, the EC50 on RORα LBD [4] (setting [12]) and at RORα LBD [4] (setting [13]) was less than 30 µM in each case. Moreover, in the data set on TH17 cells, the inhibition at 3 µM is more than 50%. Further, the half-inhibitory concentration (IC50) with IL-21, with IL-22, in the data set with IL-17F, with IL-17A and in the data set with IL-17AF was less than 10 µM in each case. Further, in data set [5], the viability at 5 days, 1 µM is more than 80%.

Broadly, the EC50 is the concentration needed to bring the measured effect to its halfway point. By IC50 is commonly meant the midpoint of a concentration-inhibition curve. One may read the viability as a per cent measure of how many cells are alive, often set against a control. As usually defined, the melting point is the temperature of the solid-liquid transition.
